Test results: ChEMBL document CHEMBL1909046, “DrugMatrix in vitro pharmacology data”

How the values were obtained:
[1] = biological target: Beta-1 adrenergic receptor (Homo sapiens, UniProt P08588); assay: DRUGMATRIX: Adrenergic beta1 radioligand binding (ligand: [125I] Cyanopindolol); format: cell membranes, CHO-K1, Membrane; settings: cho-k1; Not Active = under 50% inhibition at 10 µM
[2] = DRUGMATRIX: Sigma2 radioligand binding (ligand: [3H] Ifenprodil); format: cell membranes, Rattus norvegicus, Wistar, Brain, Membrane; settings: Not Active = under 50% inhibition at 10 µM
Endothelin-1 receptor = biological target: T1, Endothelin-1 receptor (Homo sapiens, UniProt P25101); format: cell membranes, Membrane; settings: cho-k1; also: in other assays of this panel Not Active means under 50% inhibition at 10 µM
T1 sequence (P25101 whole entry): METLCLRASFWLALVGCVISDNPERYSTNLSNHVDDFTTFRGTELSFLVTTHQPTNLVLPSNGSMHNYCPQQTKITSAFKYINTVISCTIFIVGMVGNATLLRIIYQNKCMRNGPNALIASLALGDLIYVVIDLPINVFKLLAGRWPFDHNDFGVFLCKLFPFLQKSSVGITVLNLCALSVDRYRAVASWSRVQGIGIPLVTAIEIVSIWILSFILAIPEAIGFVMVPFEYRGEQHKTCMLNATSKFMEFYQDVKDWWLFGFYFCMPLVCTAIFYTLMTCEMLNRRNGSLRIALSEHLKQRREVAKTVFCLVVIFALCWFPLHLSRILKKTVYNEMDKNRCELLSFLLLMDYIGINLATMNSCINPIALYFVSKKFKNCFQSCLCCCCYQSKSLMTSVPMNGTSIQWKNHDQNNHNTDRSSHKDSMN

[3] = biological target: T2, Polyunsaturated fatty acid lipoxygenase ALOX15 (Oryctolagus cuniculus, UniProt P12530); assay: biochemical; format: tissue-based, Reticulocytes; settings: reticulocytes;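 also: inhibition of 15-lipoxygenase enzyme activity measured with linoleic acid as the substrate; in other assays of this panel Not Active means under 50% inhibition at 10 µM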
T2 sequence (P12530 whole entry): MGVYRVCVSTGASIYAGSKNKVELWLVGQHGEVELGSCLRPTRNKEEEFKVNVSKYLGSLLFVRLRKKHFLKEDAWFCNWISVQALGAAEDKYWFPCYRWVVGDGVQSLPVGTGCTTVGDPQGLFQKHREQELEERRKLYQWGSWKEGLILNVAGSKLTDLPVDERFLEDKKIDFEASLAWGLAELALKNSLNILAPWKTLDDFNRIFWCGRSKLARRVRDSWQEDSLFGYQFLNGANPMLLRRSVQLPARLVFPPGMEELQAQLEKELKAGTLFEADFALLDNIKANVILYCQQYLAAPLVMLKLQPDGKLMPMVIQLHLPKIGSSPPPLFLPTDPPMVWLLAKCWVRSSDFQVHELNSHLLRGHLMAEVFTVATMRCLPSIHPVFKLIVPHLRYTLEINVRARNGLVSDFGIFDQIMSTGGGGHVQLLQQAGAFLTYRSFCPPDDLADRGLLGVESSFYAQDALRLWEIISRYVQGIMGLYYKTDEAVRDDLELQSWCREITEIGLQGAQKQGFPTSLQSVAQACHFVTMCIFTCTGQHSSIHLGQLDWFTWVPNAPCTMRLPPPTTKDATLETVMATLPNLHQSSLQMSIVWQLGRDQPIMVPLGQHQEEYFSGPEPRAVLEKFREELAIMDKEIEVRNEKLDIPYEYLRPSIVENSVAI

Caspase-1 = biological target: T3, Caspase-1 (Homo sapiens, UniProt P29466); parameters: species or system Escherichia coli;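 also: Caspase-1 enzyme inhibition assay with a peptide substrate; in other assays of this panel Not Active means under 50% inhibition at 10 µM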
T3 sequence (P29466 whole entry): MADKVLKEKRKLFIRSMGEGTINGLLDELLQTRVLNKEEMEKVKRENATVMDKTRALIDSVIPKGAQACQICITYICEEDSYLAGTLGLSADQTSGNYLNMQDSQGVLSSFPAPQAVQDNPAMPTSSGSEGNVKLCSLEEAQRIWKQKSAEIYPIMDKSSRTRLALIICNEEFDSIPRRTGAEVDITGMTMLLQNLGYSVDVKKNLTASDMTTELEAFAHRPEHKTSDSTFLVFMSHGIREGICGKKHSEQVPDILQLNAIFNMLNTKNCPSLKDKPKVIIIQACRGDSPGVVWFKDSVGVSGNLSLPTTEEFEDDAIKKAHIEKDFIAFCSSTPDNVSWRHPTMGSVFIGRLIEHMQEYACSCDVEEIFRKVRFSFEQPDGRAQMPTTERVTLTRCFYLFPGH

Beta-1 adrenergic receptor, sequence (P08588 whole entry): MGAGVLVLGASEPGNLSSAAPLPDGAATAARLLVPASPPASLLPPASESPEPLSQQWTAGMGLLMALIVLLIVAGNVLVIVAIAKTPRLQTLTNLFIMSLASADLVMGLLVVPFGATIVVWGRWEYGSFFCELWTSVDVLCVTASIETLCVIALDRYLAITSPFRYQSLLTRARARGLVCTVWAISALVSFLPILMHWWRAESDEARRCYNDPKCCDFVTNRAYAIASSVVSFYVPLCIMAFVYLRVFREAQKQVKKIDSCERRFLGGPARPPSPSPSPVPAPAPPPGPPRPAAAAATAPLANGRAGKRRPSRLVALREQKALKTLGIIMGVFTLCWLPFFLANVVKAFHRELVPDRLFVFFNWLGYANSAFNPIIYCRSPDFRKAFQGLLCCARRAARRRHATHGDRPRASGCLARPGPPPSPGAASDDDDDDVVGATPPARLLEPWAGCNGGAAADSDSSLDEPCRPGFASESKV

Cc1nnc2n1-c1ccc(Cl)cc1C(c1ccccc1)=NC2 [ALPRAZOLAM]
Not Active: IC50 [1] | IC50 [2] | Ki [2] | IC50 (Endothelin-1 receptor) | IC50 [3] | IC50 (Caspase-1)

CC(C)=CCC/C(C)=C/CO [GERANIOL]
Not Active: IC50 [1] | IC50 [2] | Ki [2] | IC50 (Endothelin-1 receptor) | IC50 [3] | IC50 (Caspase-1)

COc1ccc(C(=O)N2CCCC2=O)cc1
Not Active: IC50 [1] | IC50 [2] | Ki [2] | IC50 (Endothelin-1 receptor) | IC50 [3] | IC50 (Caspase-1)

GENTAMICIN
Not Active: IC50 [1] | Ki [1] | IC50 [2] | Ki [2] | IC50 (Endothelin-1 receptor) | Ki (Endothelin-1 receptor) | IC50 [3] | Ki [3] | IC50 (Caspase-1) | Ki (Caspase-1)

CC(C)NNC(=O)c1ccncc1 [IPRONIAZID]
Not Active: IC50 [1] | IC50 [2] | Ki [2] | IC50 (Endothelin-1 receptor) | IC50 [3] | IC50 (Caspase-1)

O=c1cc(N2CCOCC2)oc2c(-c3ccccc3)cccc12 [LY-294002]
Not Active: IC50 [1] | IC50 [2] | Ki [2] | IC50 (Endothelin-1 receptor) | IC50 [3] | IC50 (Caspase-1)

NCCCC(O)(P(=O)(O)O)P(=O)(O)O [ALENDRONIC ACID]
Not Active: IC50 [1] | IC50 [2] | Ki [2] | IC50 (Endothelin-1 receptor) | IC50 [3] | IC50 (Caspase-1)

Nc1ccc2c3c(cccc13)C(=O)NC2=O
Not Active: IC50 [1] | IC50 [2] | Ki [2] | IC50 (Endothelin-1 receptor) | IC50 [3] | IC50 (Caspase-1)

CC(C)(C)NC(=O)[C@H]1CC[C@H]2[C@@H]3CC[C@H]4NC(=O)C=C[C@]4(C)[C@H]3CC[C@]12C [FINASTERIDE]
Not Active: IC50 [1] | IC50 [2] | Ki [2] | IC50 (Endothelin-1 receptor) | IC50 [3] | IC50 (Caspase-1)

CC[C@H](C)[C@H]1O[C@]2(C=C[C@@H]1C)C[C@@H]1C[C@@H](C/C=C(\C)[C@@H](O[C@H]3C[C@H](OC)[C@@H](O[C@H]4C[C@H](OC)[C@@H](O)[C@H](C)O4)[C@H](C)O3)[C@@H](C)/C=C/C=C3\CO[C@@H]4[C@H](O)C(C)=C[C@@H](C(=O)O1)[C@]34O)O2.CO[C@H]1C[C@H](O[C@H]2[C@H](C)O[C@@H](O[C@@H]3/C(C)=C/C[C@@H]4C[C@@H](C[C@]5(C=C[C@H](C)[C@@H](C(C)C)O5)O4)OC(=O)[C@@H]4C=C(C)[C@@H](O)[C@H]5OC/C(=C\C=C\[C@@H]3C)[C@]54O)C[C@@H]2OC)O[C@@H](C)[C@@H]1O [ABAMECTIN]
Not Active: IC50 [1] | IC50 [2] | Ki [2] | IC50 (Endothelin-1 receptor) | IC50 [3] | IC50 (Caspase-1)

Cn1c(=O)c2[nH]cnc2n(C)c1=O.Cn1c(=O)c2[nH]cnc2n(C)c1=O.NCCN [AMINOPHYLLINE]
Not Active: IC50 [1] | IC50 [2] | Ki [2] | IC50 (Endothelin-1 receptor) | IC50 [3] | IC50 (Caspase-1)

C#C[C@]1(OC(C)=O)CC[C@H]2[C@@H]3CCC4=C[C@@H](OC(C)=O)CC[C@@H]4[C@H]3CC[C@@]21C [ETHYNODIOL DIACETATE]
Not Active: IC50 [1] | IC50 [2] | Ki [2] | IC50 (Endothelin-1 receptor) | IC50 [3] | IC50 (Caspase-1)

CN/C(=N\CCSCc1nc[nH]c1C)NC#N [CIMETIDINE]
Not Active: IC50 [1] | IC50 [2] | Ki [2] | IC50 (Endothelin-1 receptor) | IC50 [3] | IC50 (Caspase-1)

COc1ccc2c3c1O[C@H]1C[C@@H](O)C=C[C@@]31CCN(C)C2 [GALANTAMINE]
Not Active: IC50 [1] | IC50 [2] | Ki [2] | IC50 (Endothelin-1 receptor) | IC50 [3] | IC50 (Caspase-1)

OC(CCCN1CCCCC1)(c1ccccc1)c1ccccc1 [DIPHENIDOL]
Not Active: IC50 [1] | IC50 [2] | Ki [2] | IC50 (Endothelin-1 receptor) | IC50 [3] | IC50 (Caspase-1)
